# Results from PubChem BioAssay AID602356 (Sanford-Burnham Center for Chemical Genomics, 2012).
# pEC50: −log10 of the molar value. Values joined by “and” are separate entries in the source; they are usually repeats but may differ in a detail not shown here. Identical values can stand only once. Active and inactive are the calls of the source. No rule for the calls is given here.
# Target: Neurotensin receptor type 1 (Homo sapiens) (UniProt P30989)
# Experiment: neurotensin receptor 1 activation – imaging, image-based, set 3, SAR follow-up (AID 602356)
# Conditions: NTR1 image-based agonist assay, cellular imaging
# Sequence of Neurotensin receptor type 1 (Homo sapiens) (P30989 whole entry, looked up): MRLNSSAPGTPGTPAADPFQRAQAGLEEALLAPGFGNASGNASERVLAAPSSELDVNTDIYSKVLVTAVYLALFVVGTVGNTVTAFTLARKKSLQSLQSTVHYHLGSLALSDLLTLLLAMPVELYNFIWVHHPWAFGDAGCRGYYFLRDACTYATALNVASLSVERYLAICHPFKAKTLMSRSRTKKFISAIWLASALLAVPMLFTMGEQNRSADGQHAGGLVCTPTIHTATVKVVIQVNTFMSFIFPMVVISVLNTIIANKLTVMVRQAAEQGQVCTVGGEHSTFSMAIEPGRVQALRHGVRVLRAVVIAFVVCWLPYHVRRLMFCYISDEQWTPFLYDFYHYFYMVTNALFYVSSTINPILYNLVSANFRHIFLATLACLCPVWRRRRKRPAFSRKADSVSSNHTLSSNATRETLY
SMILES,EC50,pEC50
CC(C)C[C@H](NC(=O)c1cn(-c2ccncc2)c(-c2ccccc2)n1)C(=O)O,> 80 µM (inactive),–
COc1ccc(Cn2cc3c(-c4ccc(F)cc4)nnc-3c3cc(OC)c(OC)cc32)cc1,–,5.09
CCOc1cc2nc(-c3ccc(OC)c(OC)c3)nc(N3CCN(c4ccccc4F)CC3)c2cc1OC,> 80 µM (inactive),–
COc1cccc(OC)c1-c1nc(C(=O)O)cn1-c1ccncc1,> 80 µM (inactive),–
COc1ccc2nc(C3CC3)nc(N3CCN(c4ccccc4OC)CC3)c2c1,–,5.39
COc1cc2nc(CCN(C)C)nc(N3CCN(c4ccccc4OC)CC3)c2cc1OC,> 80 µM (inactive),–
COc1ccc(-c2nc(C(=O)N[C@@H](CC(C)C)C(=O)O)cn2-c2ccnc3cc(Cl)ccc23)c(OC)c1,> 80 µM (inactive),–
COc1cc2c3nnc(-c4ccc(F)cc4)c-3cn(Cc3ccc(C)cc3)c2cc1OC,–,5.16 and 5.17
Cc1ccc(Cn2cc3c(-c4ccc(C)cc4)nnc-3c3cc4c(cc32)OCO4)cc1,inactive,–
COc1cc2c3nnc(-c4ccc(Cl)cc4)c-3cn(Cc3ccccc3)c2cc1OC,–,5.38
COc1cccc(OC)c1-c1nc(C(=O)N[C@@H](CC(C)C)C(=O)O)cn1-c1ccnc2cc(Cl)ccc12,–,5.70 and 5.38
COc1cc2c3nnc(-c4ccc(F)cc4)c-3cn(Cc3ccccc3C)c2cc1OC,–,5.40
COc1cc2c3nnc(-c4ccc(F)cc4)c-3cn(CC3CC3)c2cc1OC,inactive,–
CCc1nc(N2CCN(c3ccccc3OC)CC2)c2cc(OC)c(OC)cc2n1,inactive,–
COc1ccc(-c2nnc3c4ccccc4n(Cc4ccccc4)cc2-3)cc1,inactive,–
COc1cc2c3nnc(-c4ccc(F)cc4)c-3cn(Cc3ccncc3)c2cc1OC,–,4.74

SMILES,EC50,pEC50
COc1ccccc1N1CCN(c2nc(C3CCC3)nc3cc4c(cc23)OCO4)CC1,inactive,–
COc1ccc(N2CCN(c3nc(C4CCC4)nc4cc(OC)c(OC)cc34)CC2)c(OC)c1,inactive,–
c1ccc(Cn2cc3c(-c4ccccc4)nnc-3c3ccccc32)cc1,inactive,–
Cc1ccc(Cn2cc3c(-c4ccc(Cl)cc4)nnc-3c3cc4c(cc32)OCO4)cc1,inactive,–
COc1cc2nc(CC(C)C)nc(N3CCN(c4ccccc4OC)CC3)c2cc1OC,–,4.82
Cc1ccc(-c2nnc3c4cc5c(cc4n(Cc4ccc(F)cc4)cc2-3)OCO5)cc1,–,5.03
COc1ccc2c(c1)c1nnc(-c3ccc(F)cc3)c-1cn2Cc1ccccc1,–,5.03
COc1ccc(-c2nnc3c4ccccc4n(Cc4ccncc4)cc2-3)cc1,> 80 µM (inactive),–
COc1cc2c3nnc(-c4ccc(Cl)cc4)c-3cn(Cc3ccc(C)cc3)c2cc1OC,–,4.74
Clc1ccc(-c2nnc3c4cc5c(cc4n(Cc4ccccc4)cc2-3)OCO5)cc1,> 80 µM (inactive),–
COc1cc2c3nnc(-c4ccc(F)cc4)c-3cn(Cc3ccccc3N(C)C)c2cc1OC,–,5.36 and 5.38
Cc1ccc(-c2nnc3c4cc5c(cc4n(Cc4ccc(F)cc4)cc2-3)OCO5)cc1C,inactive,–
COc1cccc(OC)c1-c1cc(C(=O)NC2(C(=O)O)C3CC4CC(C3)CC2C4)nn1-c1ccnc2cc(Cl)ccc12 (centres undefined),inactive,–
COc1cc2c3nnc(-c4ccc(F)cc4)c-3cn(Cc3ccccc3F)c2cc1OC,–,5.60
Cc1ccc(-c2nnc3c4cc5c(cc4n(Cc4ccccc4)cc2-3)OCO5)cc1C,–,5.84

# More lines, now with the values ahead:
EC50,pEC50,SMILES
inactive,–,COc1cc2nc(C3CCC3)nc(N3CCN(c4c(C)cccc4C)CC3)c2cc1OC
–,5.30,COc1ccccc1-c1cc(C(=O)N[C@@H](CC(C)C)C(=O)OC(C)(C)C)nn1-c1ccnc2cc(Cl)ccc12
inactive,–,COc1ccccc1-c1nc(C(=O)N[C@@H](CC(C)C)C(=O)O)cn1-c1ccnc2cc(Cl)ccc12
–,4.77,COc1ccc(-c2nnc3c4cc(OC)c(OC)cc4n(Cc4ccccc4)cc2-3)cc1
–,5.15,C=Cc1nc(N2CCN(c3ccccc3OC)CC2)c2cc(OC)c(OC)cc2n1
–,4.91,COc1cc2nc(C3CCC3)nc(N3CCN(c4ccccc4Cl)CC3)c2cc1OC
–,4.78,CCCc1nc(N2CCN(c3ccccc3OC)CC2)c2cc(OC)c(OC)cc2n1
inactive,–,COc1ccc(-c2nnc3c4ccccc4n(CC4CC4)cc2-3)cc1
> 80 µM (inactive),–,Cc1ccc(Cn2cc3c(-c4ccc(F)cc4)nnc-3c3ccccc32)cc1
> 80 µM (inactive),–,COc1cc2c3nnc(-c4ccc(F)cc4)c-3cn(Cc3ccc(N(C)C)cc3)c2cc1OC
inactive,–,COc1ccccc1N1CCN(c2nc(C3CCC3)nc3ccccc23)CC1
–,4.83,COc1cc2nc(C3CCC3)nc(N3CCN(c4ccccc4C)CC3)c2cc1OC
–,5.20 and 5.18,COc1cc2c3nnc(-c4ccc(F)cc4)c-3cn(Cc3cccc(C)c3)c2cc1OC
inactive,–,COc1ccc(-c2nnc3c4ccccc4n(Cc4ccc(Cl)cc4)cc2-3)cc1
> 80 µM (inactive),–,CCOC(=O)c1cc(-c2c(OC)cccc2OC)n(-c2ccnc3cc(Cl)ccc23)n1
inactive,–,COc1ccc(-c2nnc3c4ccccc4n(Cc4ccc(OC(F)(F)F)cc4)cc2-3)cc1
–,5.19,COc1cc2c3nnc(-c4ccc(C)cc4)c-3cn(Cc3ccc(F)cc3)c2cc1OC
inactive,–,COc1ccc2c(N3CCN(c4ccccc4OC)CC3)nc(C3CCC3)nc2c1
–,4.92,COc1cc2nc(C3CCC3)nc(N3CCN(c4ccccc4)CC3)c2cc1OC

EC50,pEC50,SMILES
–,4.70,COc1cc2c3nnc(-c4ccccc4)c-3cn(Cc3ccccc3)c2cc1OC
–,5.12,COc1cc2c3nnc(-c4ccc(F)cc4)c-3cn(Cc3ccc(Cl)cc3)c2cc1OC
–,4.95,COc1cc2c3nnc(-c4ccc(F)cc4)c-3cn(Cc3ccc(F)cc3)c2cc1OC
–,5.28,COc1ccc(-c2nnc3c4cc(OC)c(OC)cc4n(Cc4ccc(C)cc4)cc2-3)cc1
–,5.24,COc1cc2nc(C3CCCC3)nc(N3CCN(c4ccccc4OC)CC3)c2cc1OC
–,4.96,Fc1ccc(-c2nnc3c4cc5c(cc4n(Cc4ccccc4)cc2-3)OCO5)cc1
> 80 µM (inactive),–,CCn1cc2c(-c3ccc(F)cc3)nnc-2c2cc(OC)c(OC)cc21
inactive,–,CCc1ccc(-c2nnc3c4cc(OC)c(OC)cc4n(Cc4ccccc4)cc2-3)cc1
> 80 µM (inactive),–,COc1ccccc1-c1nc(C(=O)N[C@@H](CC(C)C)C(=O)O)cn1-c1ccnc2ccccc12
inactive,–,COc1cc2c3nnc(-c4ccc(C)cc4)c-3cn(Cc3ccccc3)c2cc1OC
> 80 µM (inactive),–,COc1cc2nc(-c3ccccc3)nc(N3CCN(c4ccccc4F)CC3)c2cc1OC
–,5.26 and 5.09,Cc1ccc(Cn2cc3c(-c4ccc(F)cc4)nnc-3c3cc4c(cc32)OCO4)cc1
–,4.86,COc1cc2nc(Cc3ccccc3)nc(N3CCN(c4ccccc4OC)CC3)c2cc1OC
> 80 µM (inactive),–,COc1ccc2c(c1)c1nnc(-c3ccc(F)cc3)c-1cn2Cc1ccc(C)cc1
> 80 µM (inactive),–,COc1cc2nc(C)nc(N3CCN(c4ccccc4OC)CC3)c2cc1OC
–,5.14,Fc1ccc(Cn2cc3c(-c4ccc(F)cc4)nnc-3c3cc4c(cc32)OCO4)cc1
> 80 µM (inactive),–,COc1cccc(OC)c1-c1cc(C(=O)O)nn1-c1ccnc2cc(Cl)ccc12
–,5.00,COc1ccc2nc(C3CCC3)nc(N3CCN(c4ccccc4OC)CC3)c2c1
> 80 µM (inactive),–,COc1ccc(-c2nnc3c4cc(OC)c(OC)cc4n(Cc4ccc(F)cc4)cc2-3)cc1
